In patent US10898469B2, “Imidazolylamide derivative” (Sumitomo Dainippon Pharma Co., Ltd., priority 2016, dated 2021):

Legend:
Assay type in all cases: cell-based, human
[1] = tested on: HCT-116 cells; test: Inhibition test for sphere-forming ability of cancer cells (Test Example 1), HCT-116; conditions: for IC50: HCT-116 cells, concentration for 50% inhibition of cell proliferation, read-out: IC50 (μmol/L) HCT-116 (Sphere IC50 value); for inhibitory effect on the sphere-forming ability of cancer cells: Test Example 1, summary in words, cell line not given (HCT-116, HT-29, FaDu tested)
Outline: (§1)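 Sphere IC50 (μmol/L) derived from CellTiter-Glo luminescence after 4 days of compound treatment (final DMSO 0.1%). Non-adherent, serum-free culture of 350-800 cells/well in DMEM/F12 supplemented with 2% B27, EGF, bFGF and insulin assessed self-renewal.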

[2] = tested on: HCT-116 cells; test: Inhibition test for sphere-forming ability of cancer cells in the presence of BSA (Test Example 2), HCT-116; conditions: for IC50: HCT-116 cells, in the presence of 5% BSA, cultured 4 days; for inhibitory effect on the sphere-forming ability of cancer cells: Test Example 2, in the presence of 5% BSA, summary in words, cell line not given (HCT-116, HT-29, FaDu tested)
Experimental: (§2) Human colorectal cancer-derived HCT-116 cells, human colon-adenocarcinoma-derived HT-29 cells, and human pharyngeal cancer-derived FaDu cells were available from American Type Culture Collection (ATCC). HCT-116 cells and HT-29 cells were cultured at 37° C. under 5% CO2 using the McCoy's 5a medium containing 10% fetal bovine serum (FBS) and 1% penicillin/streptomycin, and FaDu cells were cultured at 37° C. under 5% CO2 using the MEM medium containing 10% FBS, 1% non-essential amino acid, 1% sodium pyruvate, 5% bovine serum albumin (BSA), and 1% penicillin/streptomycin. HCT-116 cells, HT-29 cells, and FaDu cells were seeded in a 384 Well Black Clear Bottom Ultra-Low Attachment Microplate (Corning Cat. No. 3827) in an amount of 350-800 cells/well using the DMEM/F12 medium containing 2% B27 supplement (GIBCO), 20 ng/mL epidermal growth factor (EGF) (peprotech), 10 ng/mL basic fibroblast growth factor (bFGF) (peprotech), 5 μg/mL insulin (Sigma), 5% bovine serum albumin (BSA), and 1% penicillin/streptomycin. Each test compound was added into each well to adjust the final concentration of DMSO to 0.1%, and the cells were cultured for 4 days. The number of viable cells in each well was then measured with CellTiter-Glo® Luminescent Cell Viability Assay (Promega) to calculate the concentration of each test compound for 50% inhibition of cell proliferation (Sphere IC50 value; μmol/L).
(§3) The experiment of Test Example 2 was performed for each compound of each Example.
(§4) The concentration of each test compound for 50% inhibition of cell proliferation (Sphere IC50 value; μmol/L) is shown in the following Table.

[3] = tested on: HT-29 cells; test: Inhibition test for sphere-forming ability of cancer cells (Test Example 1), HT-29; conditions: concentration for 50% inhibition of cell proliferation, read-out: IC50 (μmol/L) HT-29 (Sphere IC50 value)
Outline: as §1

[4] = tested on: FaDu cells; test: Inhibition test for sphere-forming ability of cancer cells (Test Example 1), FaDu; conditions: Homo sapiens, concentration for 50% inhibition of cell proliferation, read-out: IC50 (μmol/L) FaDu (Sphere IC50 value)
Outline: as §1

[5] = tested on: HT-29 cells; test: Inhibition test for sphere-forming ability of cancer cells in the presence of BSA (Test Example 2), HT-29; conditions: in the presence of 5% BSA, cultured 4 days
Experimental: as §2, §3, §4

Compound	IC50 ([1]; Homo sapiens) [µmol/L]	IC50 ([2]; Homo sapiens, HCT-116, 96 h) [µM]	inhibitory effect on the sphere-forming ability of cancer cells [2]	IC50 ([3]; Homo sapiens) [µmol/L]	IC50 [4] [µmol/L]	inhibitory effect on the sphere-forming ability of cancer cells [1]	IC50 ([5]; Homo sapiens, 96 h) [µM]	IC50 [1] [µmol/L]	IC50 [2] [µM]	IC50 [5] [µM]	IC50 [3] [µmol/L]
COc1ccc(/C=C/C(=O)Nc2cn(Cc3cccc(C(F)(F)F)c3)cn2)cc1O [Example 31, (E)-3-(3-Hydroxy-4-methoxyphenyl)-N-(1-(3-(trifluoromethyl)benzyl)-1H-imidazol-4-yl)acrylamide]	0.84	0.09	particularly potent inhibitory effect	0.65	< 0.01	–	–	–	–	–	–
COc1ccc(/C=C/C(=O)Nc2cn(Cc3cccc(Cl)c3)cn2)cc1OCCO [Example 33, (2E)-N-[1-(3-chlorobenzyl)-1H-imidazol-4-yl]-3-[3-(2-hydroxyethoxy)-4-methoxyphenyl]prop-2-enamide]	0.06	0.59	particularly potent inhibitory effect	0.01	< 0.01	particularly potent inhibitory effect	–	–	–	–	–
C=Cc1ncc(C(=O)Nc2cn(Cc3cccc(C(F)(F)F)c3)cn2)cc1OC [Example 100]	6.63	8.38	–	1.96	–	–	6.33	–	–	–	–
COc1ccc(C(=O)Nc2cn(Cc3cccc(Cl)c3)c(C)n2)cc1OC [Example 102]	7.87	> 10	–	4.07	–	–	5.96	–	–	–	–
COC(=O)c1ccc(/C=C/C(=O)Nc2cn(Cc3cccc(C(F)(F)F)c3)cn2)cn1 [Example 131, Methyl 5-[(1E)-3-oxo-3-({1-[3-(trifluoromethyl)benzyl]-1H-imidazol-4-yl}amino)prop-1-en-1-yl]picolinate]	> 10	9.21	–	8.71	–	–	0.54	–	–	–	–
COC(=O)c1ccc(OCC(=O)Nc2cn(Cc3cc(F)c(F)c(F)c3)cn2)cn1 [Example 132, Methyl 5-(2-oxo-2-{[1-(3,4,5-trifluorobenzyl)-1H-imidazol-4-yl]amino}ethoxy)picolinate]	8.22	> 10	–	6.37	–	–	6.46	–	–	–	–
O=C(Nc1cn(Cc2cccc(Cl)c2)cn1)c1ccc2ncccc2c1 [Example 137]	–	–	–	–	–	–	–	0.81	> 10	6.13	0.57
O=C(Nc1cn(Cc2cccc(Cl)c2)cn1)c1cnc2ccccc2c1 [Example 138]	–	–	–	–	–	particularly potent inhibitory effect	–	0.1	> 10	6.14	0.2
O=C(Nc1cn(Cc2cccc(C(F)(F)F)c2)cn1)c1ccncn1 [Example 179]	–	–	–	–	–	–	–	2.91	5.96	5.76	4.65
O=C(Nc1cn(Cc2cccc(C(F)(F)F)c2)cn1)c1cncnc1 [Example 180]	–	–	–	–	–	–	–	8.73	> 10	4.93	0.76
O=C(Nc1cn(Cc2cccc(C(F)(F)F)c2)cn1)c1cnc2ccccc2c1 [Example 181]	–	–	–	–	–	–	–	0.77	8	3.31	0.19
O=C(Nc1cn(Cc2cccc(C(F)(F)F)c2)cn1)c1ccc2ncccc2c1 [Example 183]	–	–	–	–	–	–	–	0.94	> 10	6.4	0.29
O=C(Nc1cn(Cc2cccc(C(F)(F)F)c2)cn1)c1ccc2cnccc2c1 [Example 186]	–	–	particularly potent inhibitory effect	–	–	particularly potent inhibitory effect	–	0.08	0.56	0.1	0.05
O=C(Nc1cn(Cc2cccc(C(F)(F)F)c2)cn1)c1cnc2ncccc2c1 [Example 188]	–	–	–	–	–	–	–	0.72	5.54	0.85	0.63
O=C(Nc1cn(Cc2cc(F)c(F)c(F)c2)cn1)c1ccc2cnccc2c1 [Example 190]	–	–	–	–	–	particularly potent inhibitory effect	–	0.06	0.27	0.06	0.06
O=C(Nc1cn(Cc2cccc(Cl)c2)cn1)c1ccc2cnccc2c1 [Example 191]	–	–	–	–	–	particularly potent inhibitory effect	–	0.31	0.69	0.53	0.09
O=C(Nc1cn(Cc2cccc(C(F)(F)F)c2)cn1)c1cnc2cnccc2c1 [Example 192]	–	–	particularly potent inhibitory effect	–	–	particularly potent inhibitory effect	–	0.05	0.07	0.07	< 0.01
O=C(Nc1cn(Cc2cccc(C(F)(F)F)c2)cn1)c1ccc2cnccc2n1 [Example 193]	–	–	–	–	–	particularly potent inhibitory effect	–	0.07	0.6	0.61	0.06
COc1cc(C(=O)Nc2cn(Cc3cccc(C(F)(F)F)c3)cn2)cnc1Cl [Example 228]	–	–	–	–	–	–	–	6.39	> 10	4.88	4.17
CC(=O)Nc1ccc(/C=C/C(=O)Nc2cn(Cc3cccc(C(F)(F)F)c3)cn2)nc1 [Example 230]	6.02	> 10	–	0.94	–	–	5.84	–	–	–	–
O=C(/C=C/c1cccnc1)Nc1cn(Cc2cc(F)c(F)c(F)c2)cn1 [Example 231]	0.56	0.7	–	0.07	–	particularly potent inhibitory effect	0.52	–	–	–	–
Cn1cc(C(=O)Nc2cn(Cc3cccc(C(F)(F)F)c3)cn2)ccc1=O [Example 242, 1-Methyl-6-oxo-N-{1-[3-(trifluoromethyl)benzyl]-1H-imidazol-4-yl}-1,6-dihydropyridine-3-carboxamide]	0.38	2.14	–	0.29	0.11	particularly potent inhibitory effect	–	–	–	–	–
O=C(Nc1cn(Cc2cccc(C(F)(F)F)c2)cn1)c1ccc(NCCO)nc1 [Example 248, 6-[(2-Hydroxyethyl)amino]-N-{1-[3-(trifluoromethyl)benzyl]-1H-imidazol-4-yl}nicotinamide]	1	6.5	–	0.83	–	–	5.13	–	–	–	–
O=C(Nc1cn(Cc2cccc(C(F)(F)F)c2)cn1)c1ccc(NCC(F)(F)F)nc1 [Example 249]	0.49	2.42	–	0.29	–	–	0.49	–	–	–	–
Cc1ccc2cc(NC(=O)c3cn(Cc4cc(F)c(F)c(F)c4)cn3)ccc2n1 [Example 252]	–	–	particularly potent inhibitory effect	–	–	particularly potent inhibitory effect	–	0.03	0.08	0.05	< 0.01
O=C(Nc1ccc(CO)cc1)c1cn(Cc2cc(F)c(F)c(F)c2)cn1 [Example 253]	–	–	particularly potent inhibitory effect	–	–	particularly potent inhibitory effect	–	0.07	0.57	0.07	0.08
Cc1ccc2cc(NC(=O)c3cn(Cc4cccc(Cl)c4)cn3)ccc2n1 [Example 255, 1-(3-Chlorobenzyl)-N-(2-methylquinolin-6-yl)-1H-imidazole-4-carboxamide]	0.06	0.63	–	< 0.01	–	particularly potent inhibitory effect	0.39	–	–	–	–
COc1ccc(NC(=O)c2cn(Cc3cccc(Cl)c3)cn2)cc1OC [Example 262]	–	–	–	–	–	–	–	0.83	6.05	0.72	0.6
